“And” between values parts separate entries of the source, which are not always exact repeats. Equal values may be shown once.
Conditions: Liquid, Closed cell (Static) method

NCCOCCOCCN [1,2-bis(2-aminoethoxy)ethane]
Conditions | vapor or sublimation pressure [kPa]
292.92 K | 0.00358
302.88 K | 0.00757
312.87 K | 0.0156
322.91 K | 0.0297
332.89 K | 0.0545
342.89 K | 0.104
353.02 K | 0.184

OCCNCc1ccccc1 [2-benzylaminoethanol]
Conditions | vapor or sublimation pressure
292.82 K | 0.000782 kPa
312.85 K | 0.0052 kPa
332.88 K | 0.0271 kPa
332.89 K | 0.027 kPa
352.92 K | 0.114 kPa
362.91 K | 0.239 kPa and 0.231 kPa

CN(C)CCN(C)C [N,N,N',N'-tetramethyl-1,2-diaminoethane]
Conditions | vapor or sublimation pressure [kPa]
294.75 K | 1.766
304.74 K | 3.055
314.76 K | 5.055
324.95 K | 8.115
334.99 K | 12.53
344.96 K | 19.34
354.98 K | 28.12
364.97 K | 40.04

CN1CCOCC1 [N-methylmorpholine]
Conditions | vapor or sublimation pressure
273.18 K | 6.9 kPa
283.12 K | 12.94 kPa and 12.93 kPa
293.06 K | 23.06 kPa
303.04 K | 39.34 kPa
313.05 K | 64.46 kPa
323.08 K | 101.73 kPa
333.07 K | 155.32 kPa
343.08 K | 230.31 kPa
353.08 K | 332.76 kPa

— the NIST ThermoML archive (doi:10.1016/j.fluid.2009.04.006)
